Assay results published in patent US9187428B2, “Substituted dicyanopyridines and use thereof” (Bayer Intellectual Property GmbH, priority 2010, dated 2015).
In brackets after ≈: the same amount, converted by molar mass. Read-outs that look alike come from different tables or passages of the source.

Experiments:
A1 receptor = A1 receptor (Rattus norvegicus (Rat), UniProt P25099); experiment: A1 receptor GTP shift binding assay with rat brain membranes and [3H]DPCPX; conditions: rat brain membranes, 0.4 nM [3H]DPCPX, presence and absence of 1 mM GTP
Protocol: B-6. GTP Shift Experiment
Preparation of the Brain Membrane
The brains of male Wistar rats are removed and immediately transferred into an ice-cooled 0.32 mol/l sucrose solution. The tissue is comminuted using a glass-Teflon homogenizer and then centrifuged (1000×g for 10 minutes). The supernatant is then ultracentrifuged at 30 000 g for 30 minutes. The pellet obtained in this manner is resuspended in 10 ml of water and allowed to stand on ice for 30 minutes. After a final centrifugation step at 48 000 g for 10 min, the membranes are resuspended in 50 mmol/l Tris-HCl buffer, pH 7.4, and incubated with 2 U/ml of adenosine deaminase at 37° C. for 30 min. This is followed by a protein determination according to Bradford. The membranes are frozen in small aliquots and stored at −80° C. until required for the binding assay.
The A1 receptor GTP shift binding assay is carried out using rat brain membranes and 0.4 nM [^3H] […] 10 μg of membrane protein are incubated at 37° C. for 20 min with 0.4 nM [^3H]DPCPX and adenosine A1 agonists in various concentrations in buffer (50 mM tris-HCl, pH 7.4, 2 U/ml ADA) in the presence and absence of 1 mM guanosine triphosphate (GTP). […] The radioactivity on the filter is measured with addition of 100 μl of scintillation cocktail in a Microbeta TriLux beta counter (PerkinElmer, Massachusetts, USA). […]

[1] = Determination of the solubility; type: physicochemical; conditions: kinetic from dmso stock
Protocol: B-8. Determination of the Solubility
• PBS buffer pH 6.5: 90.00 g of NaCl p.a. (for example from Merck, Art. No. 1.06404.1000), 13.61 g of KH2PO4 p.a. (for example from Merck, Art. No. 1.04873.1000) and 83.35 g of 1 N aqueous sodium hydroxide solution (for example from Bernd Kraft GmbH, Art. No. 01030.4000) are weighed into a 1 liter measuring flask, the flask is filled with distilled water to 1 liter and the mixture is stirred for 1 hour. Using 1 N hydrochloric acid (for example from Merck, Art. No. 1.09057.1000) the pH is then adjusted to 6.5. • PEG/water solution (30:70 v/v): 30 ml of polyethylene glycol 400 (for example from Merck, Art. No. 8.17003.1000) and 70 ml of distilled water are homogenized in a 100 ml measuring flask. • PEG/PBS buffer pH 6.5 (80:20 v/v): 80 ml of polyethylene glycol 400 (for example from Merck, Art. No. 8.17003.1000) and 20 ml of PBS buffer pH 6.5 are homogenized in a 100 ml measuring flask. • Dimethyl sulfoxide (for example from Baker, Art. No. 7157.2500) • Distilled water. Preparation of the Starting Solution (Original Solution):
At least 4 mg of the test substance are weighed accurately into a wide-necked 10 mm screw V vial (from Glastechnik Gräfenroda GmbH, Art. No. 8004-WM-H/V15μ) with fitting screw cap and septum, in a pipetting robot DMSO is added to a concentration of 50 mg/ml and the mixture is shaken for 10 minutes.
Preparation of the Calibration Solutions:
Preparation of the Starting Solution for Calibration Solutions (Stock Solution):
With the aid of a pipetting robot, 10 μl of the original solution are transferred into a microtiter plate and made up with DMSO to a concentration of 600 μg/ml. The sample is shaken until everything has gone into solution.
Calibration Solution 1 (20 μg/ml):
1000 μl of DMSO are added to 34.4 μl of the stock solution, and the mixture is homogenized.
Calibration Solution 2 (2.5 μg/ml):
700 μl of DMSO are added to 100 μl of calibration solution 1, and the mixture is homogenized.
Preparation of the Sample Solutions:
Sample Solution for Solubilities of Up to 5 g/liter in PBS Buffer pH 6.5:
10 μl of the original solution are transferred into a microtiter plate, and 1000 μl of PBS buffer pH 6.5 are added.
Sample Solution for Solubilities of Up to 5 g/liter in PEG/Water (30:70):
10 μl of the original solution are transferred into a microtiter plate, and 1000 μl of PEG/water (30:70) are added.
Sample Solution for Solubilities of Up to 5 g/liter in PEG/PBS Buffer pH 6.5 (80:20):
10 μl of the original solution are transferred into a microtiter plate, and 1000 μl of PEG/PBS buffer pH 6.5 (80:20) are added.
The sample solutions prepared in this manner are shaken at 1400 rpm in a temperature-adjustable shaker (for example Eppendorf Thermomixer comfort Art. No. 5355 000.011 with interchangeable block Art. No. 5362.000.019) at 20° C. for 24 hours. In each case 180 μl are taken from these solutions and transferred into Beckman Polyallomer Centrifuge Tubes (Art. No. 343621). These solutions are centrifuged at about 223 000×g for one hour (for example Beckman Optima L-90K Ultracentrifuge with Type 42.2 Ti Rotor at 42 000 rpm). From each of the sample solutions, 100 μl of the supernatant are removed and diluted 1:5 and 1:100 with DMSO. From each dilution, a sample is transferred into a vessel suitable for HPLC analysis.
The samples are analyzed by RP-HPLC. Quantification is carried out using a two-point calibration curve of the test compound in DMSO. The solubility is expressed in mg/liter. Analysis sequence: 1) calibration solution […]; 2) calibration solution […]; 3) sample solution 1:5; 4) sample solution 1:100. […]

adenosine A1 receptor = adenosine A1 receptor (Homo sapiens (Human), UniProt P30542); experiment: Indirect determination of adenosine agonism by gene expression (luciferase reporter), A1 cells; type: cell-based; conditions: CHO cells stably transfected with adenosine A1 receptor; 1 μM forskolin; 50% inhibition of luciferase response
Description: (§1) B-1. Indirect Determination of the Adenosine Agonism by Way of Gene Expression
(§2) Cells of the CHO (Chinese Hamster Ovary) permanent line are transfected stably with the cDNA for the adenosine receptor subtypes A1, A2a and A2b. The adenosine A1 receptors are coupled to the adenylate cyclase by way of Gi proteins, while the adenosine A2a and A2b receptors are coupled by way of Gs proteins. In correspondence with this, the formation of cAMP in the cell is inhibited or stimulated, respectively. After that, expression of the luciferase is modulated by way of a cAMP-dependent promoter. The luciferase test is optimized, with the aim of high sensitivity and reproducibility, low variance and good suitability for implementation on a robot system, by varying several test parameters, such as cell density, duration of the growth phase and the test incubation, forskolin concentration and medium composition. The following test protocol is used for pharmacologically characterizing cells and for the robot-assisted substance screening:
(§3) The stock cultures are grown, at 37° C. and under 5% CO2, in DMEM/F12 medium containing 10% FCS (fetal calf serum) and in each case split 1:10 after 2-3 days. Test cultures are seeded in 384-well plates with 2000 cells per well and grown at 37° C. for approx. 48 hours. The medium is then replaced with a physiological sodium chloride solution (130 mM sodium chloride, 5 mM potassium chloride, 2 mM calcium chloride, 20 mM HEPES, 1 mM magnesium chloride hexahydrate, 5 mM sodium bicarbonate, pH 7.4). The substances to be tested, which are dissolved in DMSO, are pipetted into the test cultures (maximum final concentration of DMSO in the test mixture: 0.5%) in a dilution series of from 5×10^−11 M to 3×10^−6 M (final concentration). 10 minutes later, forskolin is added to the A1 cells and all the cultures are subsequently incubated at 37° C. for four hours. After that, 35 μl of a solution which is composed of 50% lysis reagent (30 mM disodium hydrogenphosphate, 10% glycerol, 3% TritonX100, 25 mM TrisHCl, 2 mM dithiotreitol (DTT), pH 7.8) and 50% luciferase substrate solution (2.5 mM ATP, 0.5 mM luciferin, 0.1 mM coenzyme A, 10 mM tricine, 1.35 mM magnesium sulfate, 15 mM DTT, pH 7.8) are added to the test cultures, which are shaken for approx. 1 minute and the luciferase activity is measured using a camera system. The EC50 values are determined, i.e., the concentrations at which 50% of the luciferase response is inhibited in the case of the A1 cell, and, respectively, 50% of the maximum stimulation with the corresponding substance is achieved in the case of the A2b and A2a cells. […] Pharmacol., 357, 1-9 (1998)].
(§4) Table A below lists the EC50 values of representative working examples for the receptor stimulation on adenosine A1, A2a and A2b receptor subtypes: […]

adenosine A2a receptor = adenosine A2a receptor (Homo sapiens (Human), UniProt P29274); experiment: Indirect determination of adenosine agonism by gene expression (luciferase reporter), A2a cells; type: cell-based; conditions: CHO cells stably transfected with adenosine A2a receptor, 50% of maximum stimulation
Description: as §1, §2, §3, §4

adenosine A2b receptor = adenosine A2b receptor (Homo sapiens (Human), UniProt P29275); experiment: Indirect determination of adenosine agonism by gene expression (luciferase reporter), A2b cells; type: cell-based; conditions: CHO cells stably transfected with adenosine A2b receptor, 50% of maximum stimulation
Description: as §1, §2, §3, §4

[2] = PEG 400/water solution (30:70 v/v), aqueous with cosolvent or surfactant or cyclodextrin, PEG 400/water (30:70 v/v), 20° C., read-out: Solubility [mg/liter] PEG/water solution (30:70 v/v)
[3] = aqueous buffer, PBS buffer pH 6.5, 20° C., read-out: Solubility [mg/liter] PBS buffer

adenosine A1 receptor, sequence (P30542 whole entry): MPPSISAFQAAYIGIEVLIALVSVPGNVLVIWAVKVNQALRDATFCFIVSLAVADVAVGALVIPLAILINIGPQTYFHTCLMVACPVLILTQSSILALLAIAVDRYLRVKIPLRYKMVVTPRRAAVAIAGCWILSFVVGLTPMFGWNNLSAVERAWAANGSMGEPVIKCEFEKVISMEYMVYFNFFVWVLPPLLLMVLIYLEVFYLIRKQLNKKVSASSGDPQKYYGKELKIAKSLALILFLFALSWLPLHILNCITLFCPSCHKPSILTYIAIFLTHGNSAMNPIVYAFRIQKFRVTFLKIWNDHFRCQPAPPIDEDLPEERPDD
A1 receptor, sequence (P25099 whole entry): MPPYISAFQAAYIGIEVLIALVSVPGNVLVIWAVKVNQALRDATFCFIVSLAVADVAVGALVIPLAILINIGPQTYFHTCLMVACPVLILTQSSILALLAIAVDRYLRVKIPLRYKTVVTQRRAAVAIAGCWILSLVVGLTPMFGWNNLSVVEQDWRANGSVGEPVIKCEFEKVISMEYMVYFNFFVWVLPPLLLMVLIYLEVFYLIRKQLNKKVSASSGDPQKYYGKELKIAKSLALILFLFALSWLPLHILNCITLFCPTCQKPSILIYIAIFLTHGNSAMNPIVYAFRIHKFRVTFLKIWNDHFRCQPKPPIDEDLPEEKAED
adenosine A2a receptor, sequence (P29274 whole entry): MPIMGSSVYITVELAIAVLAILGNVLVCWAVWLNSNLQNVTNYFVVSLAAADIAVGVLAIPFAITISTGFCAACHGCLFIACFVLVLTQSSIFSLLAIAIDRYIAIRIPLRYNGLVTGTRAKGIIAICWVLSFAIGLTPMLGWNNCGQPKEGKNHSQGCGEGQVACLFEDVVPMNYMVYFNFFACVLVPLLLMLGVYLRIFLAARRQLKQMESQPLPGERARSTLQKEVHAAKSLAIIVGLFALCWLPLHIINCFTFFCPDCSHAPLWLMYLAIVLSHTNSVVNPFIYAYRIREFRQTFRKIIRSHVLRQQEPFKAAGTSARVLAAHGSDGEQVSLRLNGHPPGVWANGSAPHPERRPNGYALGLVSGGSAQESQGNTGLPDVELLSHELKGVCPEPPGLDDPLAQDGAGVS
adenosine A2b receptor, sequence (P29275 whole entry): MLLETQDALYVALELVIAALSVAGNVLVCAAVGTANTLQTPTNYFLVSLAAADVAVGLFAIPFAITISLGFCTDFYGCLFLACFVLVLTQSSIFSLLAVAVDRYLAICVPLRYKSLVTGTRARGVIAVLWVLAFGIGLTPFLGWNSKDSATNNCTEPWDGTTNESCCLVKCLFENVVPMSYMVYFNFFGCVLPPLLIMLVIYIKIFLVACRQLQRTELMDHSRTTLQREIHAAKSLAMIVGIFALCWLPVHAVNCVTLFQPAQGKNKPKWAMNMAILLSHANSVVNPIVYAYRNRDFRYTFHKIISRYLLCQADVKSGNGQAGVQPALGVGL

SMILES | GTP Shift (A1 receptor) | solubility at 24 h [1, 2] | EC50 (adenosine A1 receptor) | EC50 (adenosine A2a receptor) | EC50 (adenosine A2b receptor) | solubility at 24 h [1, 3]
COCCOc1ccc(-c2c(C#N)c(N)nc(SC(C)c3cccc(C(N)=O)c3)c2C#N)cc1 (single isomer, unassigned) [Example 64, 3-[1-({6-Amino-3,5-dicyano-4-[4-(2-methoxyethoxy)phenyl]pyridin-2-yl}sulfanyl)ethyl]benzenecarboxamide] | 2.8 | 260 mg/L (≈ 549 µM) |  |  |  | 
N#Cc1c(N)nc(SCc2cccc(C(N)=O)c2)c(C#N)c1-c1ccccc1 [Example 33] |  | 53 mg/L (≈ 138 µM) | 0.3 nM | 117 nM | 3.9 nM | 5 mg/L (≈ 13 µM)
N#Cc1c(NC[C@@H](O)CO)nc(SCc2cccc(C(N)=O)c2)c(C#N)c1-c1ccccc1 [Example 99, 3-{[(3,5-Dicyano-6-{[(2R)-2,3-dihydroxypropyl]amino}-4-phenylpyridin-2-yl)sulfanyl]methyl}-benzenecarboxamide] |  | 440 mg/L (≈ 957 µM) | 0.9 nM |  |  | 9 mg/L (≈ 19.6 µM)

Second part, led by results:

GTP Shift (A1 receptor) | solubility at 24 h [1, 2] | EC50 (adenosine A1 receptor) | EC50 (adenosine A2a receptor) | EC50 (adenosine A2b receptor) | SMILES | solubility at 24 h [1, 3]
1.5 | 90 mg/L (≈ 196 µM) |  |  |  | CC(Sc1nc(N)c(C#N)c(-c2ccc(OCCO)cc2)c1C#N)c1cccc(C(N)=O)c1 (single isomer, unassigned) [Example 61, 3-[1-({6-Amino-3,5-dicyano-4-[4-(2-hydroxyethoxy)phenyl]pyridin-2-yl}sulfanyl)ethyl]benzenecarboxamide] | 
 | 210 mg/L (≈ 492 µM) | 0.08 nM | 108 nM | 46 nM | N#Cc1c(N)nc(SCc2ccnc(C(=O)NC3CC3)c2)c(C#N)c1-c1ccccc1 [Example 13] | 
